Data published in ChEMBL document CHEMBL5046251, “Discovery of a Series of Pyrimidine Carboxamides as Inhibitors of Vanin-1” (J Med Chem, 2022).
Active and inactive are the calls of the source. The rule behind the calls is not given here.

Key:
Pantetheinase [1] = target: T1, Pantetheinase (Homo sapiens, UniProt O95497); test: Inhibition of recombinant N-terminal FLAG/His6-tagged human vanin-1 expressed in CHO cells using Pantetheine-7-amino-4-trifluoromethykournarin as substrate preincubated for 30 mins followed by substrate addition and measured after 60 mins
T1 sequence (O95497 whole entry): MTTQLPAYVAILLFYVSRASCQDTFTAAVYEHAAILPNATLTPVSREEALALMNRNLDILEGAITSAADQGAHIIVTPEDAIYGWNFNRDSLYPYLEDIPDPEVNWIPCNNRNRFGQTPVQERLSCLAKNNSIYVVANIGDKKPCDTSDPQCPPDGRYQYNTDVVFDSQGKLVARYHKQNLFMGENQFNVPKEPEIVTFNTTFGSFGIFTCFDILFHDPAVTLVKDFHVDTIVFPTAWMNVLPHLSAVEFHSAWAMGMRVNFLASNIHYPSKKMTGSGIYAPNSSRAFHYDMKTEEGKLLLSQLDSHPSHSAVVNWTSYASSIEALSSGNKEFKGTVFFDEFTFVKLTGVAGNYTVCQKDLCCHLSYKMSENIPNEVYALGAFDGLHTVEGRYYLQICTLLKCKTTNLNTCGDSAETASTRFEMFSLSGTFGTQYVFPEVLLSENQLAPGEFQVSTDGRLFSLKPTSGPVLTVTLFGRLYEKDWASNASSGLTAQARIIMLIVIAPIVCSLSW

[2] = Intrinsic clearance in human liver microsomes; type: ADME, Microsome
[3] = Apparent permeability across apical to basolateral side in RRCK cells; conditions: dog, MDCK
[4] = Lipophilicity, log D of the compound in Octanol/buffer by shake-flask method
Biotinidase = target: T2, Biotinidase (Homo sapiens, UniProt P43251); test: Inhibition of N-terminal FLAG/His6-tagged human biotinidase expressed in COS cells using biotinyl-7-amino-4-trifluoromethylcoumarin as substrate preincubated for 10 mins followed by substrate addition and measured after 90 mins; type: cell-based
T2 sequence (P43251 whole entry): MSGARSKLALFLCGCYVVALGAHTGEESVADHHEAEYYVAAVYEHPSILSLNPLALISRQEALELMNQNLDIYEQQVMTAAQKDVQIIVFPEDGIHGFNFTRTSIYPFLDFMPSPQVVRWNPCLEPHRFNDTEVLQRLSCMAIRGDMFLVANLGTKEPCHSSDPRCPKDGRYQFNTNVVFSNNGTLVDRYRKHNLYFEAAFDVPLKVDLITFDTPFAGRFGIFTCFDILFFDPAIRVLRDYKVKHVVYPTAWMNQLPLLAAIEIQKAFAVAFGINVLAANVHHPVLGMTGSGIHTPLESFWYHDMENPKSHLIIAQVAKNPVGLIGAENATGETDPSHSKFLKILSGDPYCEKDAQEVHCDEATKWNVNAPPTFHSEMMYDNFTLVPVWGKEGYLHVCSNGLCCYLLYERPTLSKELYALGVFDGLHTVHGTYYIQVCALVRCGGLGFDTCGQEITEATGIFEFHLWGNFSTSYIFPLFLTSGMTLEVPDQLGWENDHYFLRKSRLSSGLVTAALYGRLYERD

Mus musculus [5] = test: Anti-colitis activity against DSS-induced BALB/c mouse model assessed as increase in body weight at 100 mg/kg, po administered for 5 to 14 days; type: functional, organism-based; conditions: time 5-14 day
Mus musculus [6] = test: Anti-colitis activity against DSS-induced BALB/c mouse model assessed as reduction in disease activity index at 100 mg/kg, po administered for 5 to 14 days; type: functional, organism-based; conditions: time 5-14 day
Mus musculus [7] = test: Anti-colitis activity against DSS-induced colitis BALB/c mouse model assessed as effect on colon length at 100 mg/kg, po measured after 14 days; type: functional, organism-based; conditions: time 14.0 day
[8] = target: T3, Pantetheinase (Homo sapiens) (UniProt O95497); test: Binding affinity to recombinant N-terminal FLAG/His6-tagged human vanin-1 expressed in CHO cells assessed as binding constant (Kon) by surface plasmon resonance analysis
T3 sequence (whole entry): T1 sequence (O95497 whole entry)

Pantetheinase [9] = target: T1, Pantetheinase; test: Binding affinity to recombinant N-terminal FLAG/His6-tagged human vanin-1 expressed in CHO cells assessed as dissociation constant by surface plasmon resonance analysis
[10] = target: T3, Pantetheinase (Homo sapiens); test: Binding affinity to recombinant N-terminal FLAG/His6-tagged human vanin-1 expressed in CHO cells assessed as binding constant (Koff) by surface plasmon resonance analysis
[11] = target: T3, Pantetheinase (Homo sapiens); test: Binding affinity to recombinant N-terminal FLAG/His6-tagged human vanin-1 expressed in CHO cells assessed as dissociative half life by surface plasmon resonance analysis
Pantetheinase [12] = target: T1, Pantetheinase; test: Inhibition of recombinant N-terminal FLAG/His6-tagged human vanin-1 expressed in CHO cells at 10 uM by 1H NMR analysis; type: cell-based
Pantetheinase [13] = target: T4, Pantetheinase (Mus musculus, UniProt Q9Z0K8); test: Inhibition of mouse vanin-1
T4 sequence (Q9Z0K8 whole entry): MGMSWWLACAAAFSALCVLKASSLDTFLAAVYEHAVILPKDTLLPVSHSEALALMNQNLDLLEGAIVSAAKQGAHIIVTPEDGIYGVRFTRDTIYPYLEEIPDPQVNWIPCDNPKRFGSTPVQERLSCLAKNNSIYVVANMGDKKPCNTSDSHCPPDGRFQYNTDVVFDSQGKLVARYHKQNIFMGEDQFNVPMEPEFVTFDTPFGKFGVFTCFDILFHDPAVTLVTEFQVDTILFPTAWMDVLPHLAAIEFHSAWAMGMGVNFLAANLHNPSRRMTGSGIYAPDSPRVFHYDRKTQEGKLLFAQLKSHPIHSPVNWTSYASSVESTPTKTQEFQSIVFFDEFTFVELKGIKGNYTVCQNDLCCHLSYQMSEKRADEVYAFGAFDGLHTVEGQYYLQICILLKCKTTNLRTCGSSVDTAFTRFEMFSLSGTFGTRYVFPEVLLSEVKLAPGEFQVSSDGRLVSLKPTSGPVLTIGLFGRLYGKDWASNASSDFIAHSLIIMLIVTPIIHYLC

Pantetheinase [14] = target: T1, Pantetheinase; test: Inhibition of human plasma vanin-1 using pantetheine-7-amino-4-trifluoromethykournarin as substrate preincubated for 30 mins followed by substrate addition; type: cell-free
[15] = Intrinsic clearance in human hepatocytes assessed per million cells; type: ADME, cell-based, Hepatocyte
[16] = Intrinsic clearance in rat hepatocytes assessed per million cells; type: ADME, cell-based, Hepatocyte
[17] = Intrinsic clearance in human hepatocytes assessed per million cells by relay assay method; type: ADME, cell-based, Hepatocyte

Row | IC50 (Pantetheinase [1]) | Intrinsic clearance [2] | Papp A→B [3] | logD [4] | IC50 (Biotinidase) | Structure (SMILES) | further results
1 | 52 nM | 51 µL/min/mg | 17 ×10⁻⁶ cm/s | 2.9 | – | Cc1cccc(C(=O)c2cnc(NCc3cccnc3)nc2)c1 | –
2 | – | 26 µL/min/mg | 23 ×10⁻⁶ cm/s | 3 | – | N#Cc1cccc(C(=O)c2cnc(NC3(c4ccccc4)CC3)nc2)c1 | –
3 | 10.6 nM | < 8 µL/min/mg | 0.6 ×10⁻⁶ cm/s | -1 | 62000 nM | CS(=O)(=O)[C@@H]1CCCN(C(=O)c2cnc(NC3(c4cncnc4)CC3)nc2)C1 | –
4 | – | 32 µL/min/mg | 8 ×10⁻⁶ cm/s | 2 | – | O=C(c1cnc(NC2(c3cncnc3)CCC2)nc1)N1CCC2(CCOCC2)C1 | –
5 | 1200 nM | – | – | – | – | N#C[C@H]1CCCN(C(=O)c2cnc(NC3(c4cncnc4)CC3)nc2)C1 | –
6 | – | < 8 µL/min/mg | 7 ×10⁻⁶ cm/s | 2 | – | C[C@H](Nc1ncc(C(=O)N2CCC3(CCOCC3)C2)cn1)c1cncnc1 | –
7 | – | < 8 µL/min/mg | 2 ×10⁻⁶ cm/s | -2 | – | O=C(c1cnc(NC2(c3cnccn3)COC2)nc1)N1CCC2(CCOCC2)C1 | –
8 | – | – | – | – | – | O=C(O)c1cc(/N=N/c2ccc(S(=O)(=O)Nc3ccccn3)cc2)ccc1O | Activity (Mus musculus [5]): Active; Activity (Mus musculus [6]): inactive; Activity (Mus musculus [7]): Active
9 | 0.6 nM | < 8 µL/min/mg | 16 ×10⁻⁶ cm/s | 0.2 | 40 nM | C[C@H](Nc1ncc(C(=O)N2CC3(CCOCC3)C2)cn1)c1cnccn1 | –
10 | – | < 10 µL/min/mg | 2 ×10⁻⁶ cm/s | 0 | 1020 nM | O=C(c1cnc(NC2(c3cncnc3)CC2)nc1)N1CCC2(CCOCC2)C1 | –
11 | 0.06 nM | 18 µL/min/mg | 17 ×10⁻⁶ cm/s | 0.6 | 3600 nM | CC(C)(Nc1ncc(C(=O)N2CCC3(CCOCC3)C2)cn1)c1cnccn1 | –
12 | 10.4 nM | < 11 µL/min/mg | 1.5 ×10⁻⁶ cm/s | -0.3 | 53000 nM | N#CC1CCCN(C(=O)c2cnc(NC3(c4cncnc4)CC3)nc2)C1 (racemic) | K [8]: 6 10^6/M/s; Kd (Pantetheinase [9]): 7.2 nM; K [10]: 0.026 s⁻¹; T1/2 [11]: 26 s; IC50 (Pantetheinase [12]): 45 nM
13 | – | 14.5 µL/min/mg | 24 ×10⁻⁶ cm/s | 2.2 | – | O=C(c1cnc(NCc2cccnc2)nc1)c1cccs1 | –
14 | – | < 8 µL/min/mg | < 0.2 ×10⁻⁶ cm/s | -3 | 1300 nM | O=C(c1cnc(NC2(c3cncnc3)COC2)nc1)N1CCC2(CCOCC2)C1 | –
15 | 0.08 nM | 15 µL/min/mg | 4 ×10⁻⁶ cm/s | 0.5 | 1900 nM | CC(C)(Nc1ncc(C(=O)N2CCC3(CCOCC3)C2)cn1)c1cncnc1 | –
16 | 52 nM | < 8 µL/min/mg | 1.7 ×10⁻⁶ cm/s | -0.4 | 12700 nM | N#C[C@@H]1CCCN(C(=O)c2cnc(NC3(c4cncnc4)CC3)nc2)C1 | –
17 | 0.04 nM | 19 µL/min/mg | 17 ×10⁻⁶ cm/s | 0.8 | – | O=C(c1cnc(NC2(c3cnccn3)CCC2)nc1)N1CC2(CCOCC2)C1 | –
18 | – | < 8 µL/min/mg | 6 ×10⁻⁶ cm/s | 0.2 | > 50000 nM | C[C@@H](Nc1ncc(C(=O)N2CCC3(CCOCC3)C2)cn1)c1cncnc1 | –
19 | 0.04 nM | 14 µL/min/mg | 12 ×10⁻⁶ cm/s | 1 | 8900 nM | O=C(c1cnc(NC2(c3cnccn3)CCC2)nc1)N1CCC2(CCOCC2)C1 | –
20 | 53 nM | 29 µL/min/mg | 28 ×10⁻⁶ cm/s | 2.5 | – | O=C(c1ccccc1)c1cnc(NCc2cccnc2)nc1 | –
21 | – | < 8 µL/min/mg | 6 ×10⁻⁶ cm/s | 0.7 | 11300 nM | O=C(c1cnc(NCc2cccnc2)nc1)N1CCC2(CCOCC2)C1 | –
22 | – | < 8 µL/min/mg | 11 ×10⁻⁶ cm/s | 1 | > 50000 nM | C[C@@H](Nc1ncc(C(=O)N2CCC3(CCOCC3)C2)cn1)c1cnccn1 | –
23 | 4.4 nM | 38 µL/min/mg | 28 ×10⁻⁶ cm/s | 2 | – | N#Cc1cccc(C(=O)c2cnc(NCc3cccnc3)nc2)c1 | –
24 | 1100 nM | < 8 µL/min/mg | 0.6 ×10⁻⁶ cm/s | -1 | – | CS(=O)(=O)[C@H]1CCCN(C(=O)c2cnc(NC3(c4cncnc4)CC3)nc2)C1 | –
25 | 33 nM | 16 µL/min/mg | 23 ×10⁻⁶ cm/s | 1.2 | – | N#Cc1cccc(C(=O)c2cnc(NCc3cncnc3)nc2)c1 | –
26 | – | 48 µL/min/mg | 19 ×10⁻⁶ cm/s | 3 | – | N#Cc1cccc(C(=O)c2cnc(NCc3ccccc3)nc2)c1 | –
27 | 203 nM | < 8 µL/min/mg | 0.9 ×10⁻⁶ cm/s | -0.8 | > 13000 nM | CS(=O)(=O)C1CCCN(C(=O)c2cnc(NC3(c4cncnc4)CC3)nc2)C1 (racemic) | K [8]: 4.1 10^5/M/s; Kd (Pantetheinase [9]): 37 nM; K [10]: 0.0088 s⁻¹; T1/2 [11]: 79 s; IC50 (Pantetheinase [12]): 122 nM
28 | – | < 8 µL/min/mg | 9 ×10⁻⁶ cm/s | 0 | 7400 nM | O=C(c1cnc(NCc2cnccn2)nc1)N1CC2(CCOCC2)C1 | –
29 | – | 12 µL/min/mg | 3 ×10⁻⁶ cm/s | 0 | 11000 nM | O=C(c1cnc(NCc2cncnc2)nc1)N1CCC2(CCOCC2)C1 | –
30 | 0.11 nM | < 13 µL/min/mg | 14 ×10⁻⁶ cm/s | 0.6 | 1200 nM | CC(C)(Nc1ncc(C(=O)N2CC3(CCOCC3)C2)cn1)c1cnccn1 | IC50 (Pantetheinase [13]): 0.41 nM; IC50 (Pantetheinase [14]): 0.88 nM; CLint [15]: < 3.5 µL/min/1e6 cells; CLint [16]: 25.8 µL/min/1e6 cells; CLint [17]: 1.66 µL/min/1e6 cells
